ChEMBL document CHEMBL5653631, “A Potent and Selective ULK1 Inhibitor Suppresses Autophagy and Sensitizes Cancer Cells to Nutrient Stress” (iScience, 2018)
Blank lines part the entries; values can stand above or below the compound they belong to.

Experiments:
[1] = target: Cyclin-dependent kinase 5 (Homo sapiens) (UniProt Q00535); assay: Inhibition of human recombinant CDK5 at 500 nM in presence of ATP by radiometric assay relative to control
[2] = target: Glycogen synthase kinase-3 alpha (Homo sapiens) (UniProt P49840); assay: Inhibition of human recombinant GSK3A at 15 nM in presence of ATP by radiometric assay relative to control
Chain of Glycogen synthase kinase-3 alpha (Homo sapiens) (P49840 2-483 limits assumed): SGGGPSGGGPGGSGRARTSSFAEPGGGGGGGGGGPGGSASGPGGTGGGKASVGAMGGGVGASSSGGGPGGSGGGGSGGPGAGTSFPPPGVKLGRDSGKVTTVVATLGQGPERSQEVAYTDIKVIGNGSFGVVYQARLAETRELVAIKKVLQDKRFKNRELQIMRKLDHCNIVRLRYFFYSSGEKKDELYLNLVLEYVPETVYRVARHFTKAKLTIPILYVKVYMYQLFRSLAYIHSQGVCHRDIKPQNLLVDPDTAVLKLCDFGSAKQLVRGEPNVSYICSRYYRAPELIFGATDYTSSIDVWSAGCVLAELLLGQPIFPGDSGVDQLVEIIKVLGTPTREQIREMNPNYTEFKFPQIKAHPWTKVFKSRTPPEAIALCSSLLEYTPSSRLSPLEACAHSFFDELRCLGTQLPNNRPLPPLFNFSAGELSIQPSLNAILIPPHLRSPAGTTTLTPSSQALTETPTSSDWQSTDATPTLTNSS

[3] = target: T1, Receptor-interacting serine/threonine-protein kinase 1 (Homo sapiens) (UniProt Q13546); assay: Inhibition of human recombinant RIPK1 at 15 nM in presence of ATP by radiometric assay relative to control
T1 sequence (whole entry): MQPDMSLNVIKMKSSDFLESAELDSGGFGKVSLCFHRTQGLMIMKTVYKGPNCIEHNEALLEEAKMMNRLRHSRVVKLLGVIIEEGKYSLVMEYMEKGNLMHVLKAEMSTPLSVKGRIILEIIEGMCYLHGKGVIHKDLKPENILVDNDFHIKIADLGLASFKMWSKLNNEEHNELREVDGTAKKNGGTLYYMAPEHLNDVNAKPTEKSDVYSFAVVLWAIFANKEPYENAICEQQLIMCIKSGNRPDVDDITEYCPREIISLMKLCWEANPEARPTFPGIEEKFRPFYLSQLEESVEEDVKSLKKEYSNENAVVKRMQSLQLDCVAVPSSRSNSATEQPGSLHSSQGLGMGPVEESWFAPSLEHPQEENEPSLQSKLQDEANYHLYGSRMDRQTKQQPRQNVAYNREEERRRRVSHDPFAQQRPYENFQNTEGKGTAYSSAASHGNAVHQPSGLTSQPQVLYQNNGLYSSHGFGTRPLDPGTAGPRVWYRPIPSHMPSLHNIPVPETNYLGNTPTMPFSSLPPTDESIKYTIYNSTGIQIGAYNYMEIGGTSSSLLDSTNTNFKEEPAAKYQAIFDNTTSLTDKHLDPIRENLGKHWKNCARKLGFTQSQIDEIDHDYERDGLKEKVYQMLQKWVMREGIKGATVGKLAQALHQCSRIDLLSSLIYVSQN

[4] = target: Serine/threonine-protein kinase WNK1 (Homo sapiens) (UniProt Q9H4A3); assay: Inhibition of human recombinant Wnk1 at 15 nM in presence of ATP by radiometric assay relative to control
Chain of Serine/threonine-protein kinase WNK1 (Homo sapiens) (Q9H4A3 whole entry, looked up): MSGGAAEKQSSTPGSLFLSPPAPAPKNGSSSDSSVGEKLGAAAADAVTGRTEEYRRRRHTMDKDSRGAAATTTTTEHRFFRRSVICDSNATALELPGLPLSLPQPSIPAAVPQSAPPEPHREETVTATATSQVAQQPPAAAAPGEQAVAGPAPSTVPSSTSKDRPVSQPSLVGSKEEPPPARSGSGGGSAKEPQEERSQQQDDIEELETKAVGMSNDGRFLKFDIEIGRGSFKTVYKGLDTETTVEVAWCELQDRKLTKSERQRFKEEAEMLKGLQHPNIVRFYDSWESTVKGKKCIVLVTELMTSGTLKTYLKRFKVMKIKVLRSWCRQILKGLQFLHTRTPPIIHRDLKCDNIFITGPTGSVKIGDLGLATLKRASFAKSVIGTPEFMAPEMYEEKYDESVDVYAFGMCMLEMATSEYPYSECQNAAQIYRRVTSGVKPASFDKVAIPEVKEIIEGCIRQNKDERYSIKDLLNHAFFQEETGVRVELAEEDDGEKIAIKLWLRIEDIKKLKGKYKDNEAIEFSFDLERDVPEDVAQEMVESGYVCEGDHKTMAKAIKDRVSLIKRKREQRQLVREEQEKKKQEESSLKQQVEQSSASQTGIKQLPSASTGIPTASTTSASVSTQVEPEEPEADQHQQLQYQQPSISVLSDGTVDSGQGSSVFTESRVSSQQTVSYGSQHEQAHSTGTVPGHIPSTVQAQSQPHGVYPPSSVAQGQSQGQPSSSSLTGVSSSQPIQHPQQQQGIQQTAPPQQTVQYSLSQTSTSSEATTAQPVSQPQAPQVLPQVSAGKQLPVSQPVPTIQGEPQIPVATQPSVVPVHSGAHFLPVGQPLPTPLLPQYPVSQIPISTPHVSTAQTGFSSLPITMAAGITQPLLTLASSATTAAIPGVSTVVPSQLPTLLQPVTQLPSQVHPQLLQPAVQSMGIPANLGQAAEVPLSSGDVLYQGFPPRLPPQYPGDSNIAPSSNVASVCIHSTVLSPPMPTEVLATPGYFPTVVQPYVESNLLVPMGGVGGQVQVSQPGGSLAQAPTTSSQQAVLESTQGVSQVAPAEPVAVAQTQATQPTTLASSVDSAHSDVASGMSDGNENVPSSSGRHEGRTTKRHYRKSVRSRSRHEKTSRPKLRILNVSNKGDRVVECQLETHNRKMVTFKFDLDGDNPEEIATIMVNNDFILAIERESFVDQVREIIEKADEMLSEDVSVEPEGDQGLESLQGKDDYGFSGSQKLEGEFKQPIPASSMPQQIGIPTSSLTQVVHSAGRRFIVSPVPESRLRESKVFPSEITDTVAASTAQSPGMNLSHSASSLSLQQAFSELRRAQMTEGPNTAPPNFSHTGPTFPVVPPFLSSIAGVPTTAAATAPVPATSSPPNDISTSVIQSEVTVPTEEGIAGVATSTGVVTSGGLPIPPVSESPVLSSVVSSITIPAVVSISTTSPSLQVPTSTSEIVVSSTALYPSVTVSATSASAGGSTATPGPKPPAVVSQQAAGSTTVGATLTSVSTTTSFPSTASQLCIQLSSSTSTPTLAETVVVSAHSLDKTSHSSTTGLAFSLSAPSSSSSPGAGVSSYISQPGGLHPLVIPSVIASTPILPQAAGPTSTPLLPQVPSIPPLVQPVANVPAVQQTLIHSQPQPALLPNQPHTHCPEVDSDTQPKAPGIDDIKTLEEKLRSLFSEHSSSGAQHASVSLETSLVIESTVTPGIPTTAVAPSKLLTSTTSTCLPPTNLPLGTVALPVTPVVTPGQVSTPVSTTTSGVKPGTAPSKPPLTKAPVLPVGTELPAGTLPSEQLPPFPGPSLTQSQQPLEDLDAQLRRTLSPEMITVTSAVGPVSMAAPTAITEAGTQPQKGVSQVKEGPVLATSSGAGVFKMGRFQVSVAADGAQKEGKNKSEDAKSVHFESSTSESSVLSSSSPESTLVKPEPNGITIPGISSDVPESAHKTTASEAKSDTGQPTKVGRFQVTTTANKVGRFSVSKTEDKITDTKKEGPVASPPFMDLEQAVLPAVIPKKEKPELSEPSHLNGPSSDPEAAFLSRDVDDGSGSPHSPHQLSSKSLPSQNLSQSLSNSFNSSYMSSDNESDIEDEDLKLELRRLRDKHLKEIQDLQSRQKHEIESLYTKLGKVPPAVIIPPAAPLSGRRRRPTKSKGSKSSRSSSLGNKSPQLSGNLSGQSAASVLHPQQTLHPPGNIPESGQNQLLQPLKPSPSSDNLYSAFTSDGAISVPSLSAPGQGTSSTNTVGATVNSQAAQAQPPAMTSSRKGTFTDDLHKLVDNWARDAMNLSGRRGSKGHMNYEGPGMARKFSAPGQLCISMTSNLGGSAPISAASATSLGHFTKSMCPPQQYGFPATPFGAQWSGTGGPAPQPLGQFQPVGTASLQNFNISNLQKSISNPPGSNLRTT

[5] = target: T2, Tyrosine-protein kinase JAK3 (Homo sapiens) (UniProt P52333); assay: Inhibition of human recombinant JAK3 at 15 nM in presence of ATP by radiometric assay relative to control
T2 sequence (whole entry): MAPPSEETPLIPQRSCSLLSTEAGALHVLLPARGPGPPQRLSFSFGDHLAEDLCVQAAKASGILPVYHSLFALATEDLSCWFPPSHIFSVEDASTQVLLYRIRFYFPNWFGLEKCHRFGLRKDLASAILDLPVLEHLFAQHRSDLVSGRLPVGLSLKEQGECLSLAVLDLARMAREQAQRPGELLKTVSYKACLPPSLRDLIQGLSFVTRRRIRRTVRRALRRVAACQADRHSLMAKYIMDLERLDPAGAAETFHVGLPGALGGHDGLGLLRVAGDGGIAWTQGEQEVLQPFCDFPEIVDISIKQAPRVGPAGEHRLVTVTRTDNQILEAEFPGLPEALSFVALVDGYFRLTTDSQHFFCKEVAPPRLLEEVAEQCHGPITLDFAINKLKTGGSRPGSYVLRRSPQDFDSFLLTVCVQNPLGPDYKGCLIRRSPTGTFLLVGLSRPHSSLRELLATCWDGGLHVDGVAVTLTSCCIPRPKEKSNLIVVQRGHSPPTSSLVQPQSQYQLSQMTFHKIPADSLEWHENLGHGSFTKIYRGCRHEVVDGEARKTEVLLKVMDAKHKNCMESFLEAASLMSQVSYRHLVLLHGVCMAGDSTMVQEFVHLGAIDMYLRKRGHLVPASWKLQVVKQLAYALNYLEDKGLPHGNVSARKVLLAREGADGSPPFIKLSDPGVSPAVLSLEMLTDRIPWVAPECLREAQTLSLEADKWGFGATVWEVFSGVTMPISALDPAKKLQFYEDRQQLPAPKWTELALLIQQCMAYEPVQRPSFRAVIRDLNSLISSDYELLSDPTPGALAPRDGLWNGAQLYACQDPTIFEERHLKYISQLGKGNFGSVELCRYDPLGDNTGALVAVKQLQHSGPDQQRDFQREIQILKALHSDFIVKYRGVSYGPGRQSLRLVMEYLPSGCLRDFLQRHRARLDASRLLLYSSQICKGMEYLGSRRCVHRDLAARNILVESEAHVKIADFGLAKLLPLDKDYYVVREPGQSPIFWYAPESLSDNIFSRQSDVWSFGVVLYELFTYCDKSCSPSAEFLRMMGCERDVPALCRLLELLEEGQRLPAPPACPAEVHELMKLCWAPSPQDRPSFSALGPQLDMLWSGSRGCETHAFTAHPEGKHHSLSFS

[6] = target: T3, NUAK family SNF1-like kinase 1 (Homo sapiens) (UniProt O60285); assay: Inhibition of human recombinant NuaK1 at 40 nM related to control ULK1
T3 sequence (whole entry): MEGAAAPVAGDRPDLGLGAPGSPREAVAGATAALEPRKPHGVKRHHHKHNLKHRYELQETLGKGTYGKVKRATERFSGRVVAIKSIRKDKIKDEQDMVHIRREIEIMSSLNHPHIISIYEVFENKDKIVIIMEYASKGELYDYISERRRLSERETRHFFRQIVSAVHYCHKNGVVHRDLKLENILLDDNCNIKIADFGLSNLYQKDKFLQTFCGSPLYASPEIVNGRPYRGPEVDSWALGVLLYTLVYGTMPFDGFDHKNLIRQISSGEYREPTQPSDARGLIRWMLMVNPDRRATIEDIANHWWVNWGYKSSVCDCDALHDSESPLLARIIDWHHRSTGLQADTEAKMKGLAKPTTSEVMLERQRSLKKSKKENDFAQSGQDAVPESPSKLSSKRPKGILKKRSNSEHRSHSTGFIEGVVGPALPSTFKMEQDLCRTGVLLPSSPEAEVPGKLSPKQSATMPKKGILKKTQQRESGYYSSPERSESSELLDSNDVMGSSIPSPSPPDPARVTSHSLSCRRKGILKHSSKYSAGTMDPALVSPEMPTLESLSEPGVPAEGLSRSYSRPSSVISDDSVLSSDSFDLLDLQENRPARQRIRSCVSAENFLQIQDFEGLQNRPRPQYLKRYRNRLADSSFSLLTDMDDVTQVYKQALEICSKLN

Chain of Cyclin-dependent kinase 5 (Homo sapiens) (Q00535 whole entry, looked up): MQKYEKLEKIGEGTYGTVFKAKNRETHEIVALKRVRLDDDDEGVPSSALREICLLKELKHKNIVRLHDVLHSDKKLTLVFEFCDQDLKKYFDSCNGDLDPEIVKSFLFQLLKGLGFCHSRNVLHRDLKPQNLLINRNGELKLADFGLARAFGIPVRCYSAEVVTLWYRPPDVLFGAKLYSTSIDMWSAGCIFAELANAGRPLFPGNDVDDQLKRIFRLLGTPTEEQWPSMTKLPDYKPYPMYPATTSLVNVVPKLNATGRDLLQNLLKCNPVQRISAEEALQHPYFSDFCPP

inhibition [1]: 57%
SMILES: CNC(=O)c1ccccc1Oc1nc(Nc2cc(OC)c(OC)c(OC)c2)ncc1Br

inhibition [2]: 0% | inhibition [3]: 1% | inhibition [4]: 4% | inhibition [5]: 0%
SMILES: CC(C)[C@H](NC(=O)c1cc(-c2cnn3cc(-c4ccc(OCCN5CCCCC5)cc4)cnc23)cs1)C(F)(F)F

fold change (FC) [6]: 0.07
SMILES: O=C(N[C@@H](C1CC1)C(F)(F)F)c1cc(-c2cnn3cc(-c4ccc(F)cc4)cnc23)cs1
